Measurements reported in patent US6140338A, “Chemokine receptor antagonists” (Banyu Pharmaceutical, Co., Ltd., priority 1996, dated 2000).
Blank lines part the entries; values can stand above or below the molecule they belong to.

Tests used:
CCR3 = CCR3 antagonist activities (Eotaxin-induced intracellular calcium increase in human eosinophils); assay type: cell-based; details: 41 nM compound 5 minutes before agonist Eotaxin (10 nM), Fura2
Procedure: By using human eosinophil which stably express CCR3, the activity of the compounds of the present invention to intracellular calcium concentration was measured by the following method. […] of Fura2 acetoxymethyl ester (produced by Dojin Kagaku Laboratories) was added to eosinophils and incubated for 30 minutes at a temperature of 37° C. Then, the mixture was excited by irradiation with light at 340 nm and 380 nm, fluorescence at 500 nm was measured, 340/380 ratio was monitored, thereby intracellular calcium concentration was calculated.

chemokine receptor CCR3 = target: T1, chemokine receptor CCR3 (Homo sapiens, UniProt P51677); assay: Inhibitory activity against binding to the chemokine receptor CCR3 ([125I]Eotaxin binding, CHO cells); details: 50 pM [125I]Eotaxin, 90 minutes, 37° C, pH 7.4, CHO cells expressing CCR3; read-out: 50% inhibitory concentration (IC50 value) against [125I]Eotaxin binding
T1 construct: expressed in transfected cells
T1 sequence (P51677 1-355): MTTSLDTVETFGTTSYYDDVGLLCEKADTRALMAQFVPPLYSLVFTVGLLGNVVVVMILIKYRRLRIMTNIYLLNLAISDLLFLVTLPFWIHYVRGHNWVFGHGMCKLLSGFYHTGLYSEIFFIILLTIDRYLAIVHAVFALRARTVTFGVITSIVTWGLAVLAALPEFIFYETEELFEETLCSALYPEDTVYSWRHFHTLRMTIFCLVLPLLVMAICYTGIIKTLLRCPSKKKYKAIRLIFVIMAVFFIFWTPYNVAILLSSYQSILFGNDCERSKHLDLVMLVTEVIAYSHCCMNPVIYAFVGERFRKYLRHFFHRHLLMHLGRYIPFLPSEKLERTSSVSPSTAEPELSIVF
Procedure: Further, an expression vector of a gene which codes chemokine receptor CCR3 was transfected to CHO cell by using lipofectamine to obtain a stable cell strain resistant against 0.5 mg/ml of G418. The stable cell strain, 50 pM[^125 I]Eotaxin (2000 Ci/mmol, manufactured by Amersham) and a test compound were suspended in 0.2 ml of Krebs-Ringer/0.1% bovine serum albumin/0.1% glucose (pH 7.4) and incubated for 90 minutes at a temperature of 37° C. Then, it was subjected to filtration by means of a glass filter GF/C which was preliminarily impregnated in 1% polyethyleneimine, and washed with 1 ml of Krebs-Ringer/0.1% bovine serum albumin/0.1% glucose (pH 7.4), whereby radio activity on the glass filter was measured. The binding affinity to the chemokine receptors CCR3 was shown as a 50% inhibitory concentration (IC50 value) of the compounds of the present invention against [^125 I]Eotaxin binding.

[1] = target: T2, human chemokine receptor CCR1 (Homo sapiens, UniProt P32246); assay: Inhibitory activity against binding to the chemokine receptor CCR1 ([125I]MIP-1 alpha binding, CHO cells); details: 50 pM [125I]MIP-1 alpha, 90 minutes, 37° C, pH 7.4, CHO cells expressing CCR1; read-out: 50% inhibitory concentration (IC50 value) against [125I]MIP-1 alpha binding
T2 construct: expressed in transfected cells
T2 sequence (P32246 1-355): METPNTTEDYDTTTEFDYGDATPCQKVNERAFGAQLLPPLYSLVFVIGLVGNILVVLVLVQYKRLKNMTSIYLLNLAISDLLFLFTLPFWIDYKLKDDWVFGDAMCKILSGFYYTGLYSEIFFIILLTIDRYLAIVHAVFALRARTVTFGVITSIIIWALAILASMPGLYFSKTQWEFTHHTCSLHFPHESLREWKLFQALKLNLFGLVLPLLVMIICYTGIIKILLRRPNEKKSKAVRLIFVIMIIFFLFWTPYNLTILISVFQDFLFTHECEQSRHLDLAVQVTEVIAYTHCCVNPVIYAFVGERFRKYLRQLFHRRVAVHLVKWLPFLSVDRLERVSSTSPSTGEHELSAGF
Procedure: cDNAs which code human chemokine receptor CCR1 was subcloned to Hind III/Xba I part of the expression vector pRc/CMV (Invitrogen) to prepare pRc/CMV CCR1. Then, pRc/CMV CCR1 was transfected to CHO cells by using lipofectamine (GIBCO) to obtain a stable cell strain resistant against 0.5 mg/ml of G418.
The stable cell strain, 50 pM[^125 I]MIP-1 alpha (2000 Ci/mmol, manufactured by New England Nuclear) and a test compound were suspended in 0.2 ml of Krebs-Ringer/0.1% bovine serum albumin/0.1% glucose (pH 7.4), and incubated for 90 minutes at a temperature of 37° C. Then, it was subjected to filtration by means of a glass filter GF/C which was preliminarily impregnated in 1% of polyethyleneimine, and washed with 1 ml of Krebs-Ringer/0.1% bovine serum albumin/0.1% glucose (pH 7.4), whereby radio activity on the glass filter was measured. The binding affinity to the chemokine receptors CCR1 was shown as a 50% inhibitory concentration (IC50 value) of the compound of the present invention against [^125 I]MIP-1 alpha binding.

chemokine receptor CCR1 = assay: Activities to intracellular cyclic AMP concentration (CHO cells stably expressing CCR1); assay type: cell-based, human
Procedure: By using CHO cells which stably express the chemokine receptor CCR1, the activity of the test compounds to intracellular cyclic AMP concentration had been studied.
The CHO cells was suspended in Locke's solution (pH 7.4:154 mM of sodium chloride, 5.6 mM of potassium chloride, 2 mM of calcium chloride, 1 mM of magnesium chloride, 0.1% glucose, 10 mM of Hepes and 0.3 mM of isobutylmethylxanthine), and preliminarily incubated at a temperature of 37° C. for 5 minutes, and 100 nM of hMIP-1 alpha and 0.01 mM of Forskolin were added thereto. The reaction was kept for 10 minutes and terminated by adding trichloroacetic acid. The reaction mixture was centrifuged at 15000 rpm for 5 minutes and supernatant was obtained. Trichloroacetic acid in the supernatant was removed by extraction with diethyl ether, and the supernatant was evaporated to dryness by centrifugal evaporator. The cyclic AMP concentration in the sample thus obtained was measured by cyclic AMP kit (produced by Amersham). The activity of test compounds to the cyclic AMP concentration was obtained by studying antagonism against hMIP-1 alpha by adding 0.01 mM of the test compounds 5 minutes before adding 100 nM of hMIP-1 alpha.

[2] = control reactions: 0.01 mM Forskolin solely, or with 100 nM hMIP-1 alpha, no test compound

IC50 (chemokine receptor CCR3): 2.7 nM
IC50 [1]: 1.9 nM
Molecule: CC[N+]1(CC2CCCCCCC2)CCC(NC(=O)C2c3cc(Br)ccc3Oc3ccc(Br)cc32)CC1 (single isomer, unassigned) [Example 26 (named cis for convenience), cis*-1-cyclooctylmethyl-1-ethyl-4-(2,7-dibromoxanthene-9-carboxamido)piperidinium iodide]
inhibitory ratio (%) of increase in the concentration of intracellular calcium (CCR3): 51%

IC50 (chemokine receptor CCR3): 1.7 nM
IC50 [1]: 1.8 nM
Molecule: O=C(NC1CCN(CC2=CCCCCCCC2)CC1)C1c2ccccc2Oc2ccccc21 [Example 61 (named cis for convenience)]

IC50 (chemokine receptor CCR3): 0.74 nM
IC50 [1]: 1.8 nM
Molecule: CC[N+]1(CC2=CCCCCCC2)CCC(NC(=O)C2c3cc(Cl)ccc3Oc3ccc(Cl)cc32)CC1 (stereo not drawn) [Example 62 (named cis for convenience), cis*-1-(1-cyclooctenylmethyl)-1-ethyl-4-(2,7-dichloroxanthene-9-carboxamido)piperidinium bromide]

The remaining lines, values behind:

Molecule: CC[N+]1(CC2CCCCCCC2)CCC(NC(=O)C2c3ccccc3Oc3ccccc32)CC1.[I-] (stereo not drawn) [Example 12, 1-cyclooctylmethyl-1-ethyl-4-(xanthene-9-carboxamido)piperidinium iodide]
cAMP concentration (chemokine receptor CCR1; 0.01 mM Forskolin + 100 nM hMIP-1 alpha + 0.01 mM test compound added 5 minutes before hMIP-1 alpha): 81.6 +/- 4.2 pmol/10^6 cells
IC50 (chemokine receptor CCR3): 40 nM
IC50 [1]: 5.2 nM

Molecule: C[N+]1(CC2CCCCCCC2)CCC(NC(=O)C2c3cc(Br)ccc3Oc3ccc(Br)cc32)CC1 (stereo not drawn) [Example 22, 1-cyclooctylmethyl-1-methyl-4-(2,7-dibromoxanthene-9-carboxamido)piperidinium iodide]
IC50 (chemokine receptor CCR3): 13 nM
IC50 [1]: 3.9 nM

Molecule: CC[N+]1(CC2=CCCCCCC2)CCC(NC(=O)C2c3cc(Cl)ccc3Oc3ccc(Cl)cc32)CC1 (stereo not drawn) [Example 59 (named cis for convenience), cis*-1-(1-cyclooctenylmethyl)-1-ethyl-4-(2,7-dichloroxanthene-9-carboxamido)piperidinium iodide]
inhibitory ratio (%) of increase in the concentration of intracellular calcium (CCR3): 97%

Molecule: C=C[C@@]1(C)CC(=O)[C@]2(O)[C@@]3(C)[C@@H](O)CCC(C)(C)[C@@H]3[C@H](O)[C@H](OC(C)=O)[C@@]2(C)O1 [Forskolin, reference compound]
cAMP concentration (chemokine receptor CCR1; [2]): 67.8 +/- 8.4 pmol/10^6 cells

B1: hMIP - 1 alpha: chemokine (polypeptidic leukocytic migration factor), agonist used at 100 nM (protein, UniProt P10147 24-92, looked up)
C-C motif chemokine 3: SLAADTPTACCFSYTSRQIPQNFIADYFETSSQCSKPGVIFLTKRSRQVCADPSEEWVQKYVSDLELSA
cAMP concentration (chemokine receptor CCR1; [2]): 47.7 +/- 4.2 pmol/10^6 cells
